Measurements as given in patent publication US20230150974A1 (Foghorn Therapeutics Inc., priority 2020, published 2023).

Legend:
[1] = molecular target: T1, HiBit-BRG1 (Homo sapiens, UniProt P51532); test: HiBit-BRG1 cell-based degradation assay (Nano-Glo HiBiT Lytic Detection); conditions: HeLa cells expressing HiBit-BRG1 and LgBit, 24 h; for DC50: read-out: BRG1 HiBit Degradation IC50; for Dmax: read-out: BRG1 HiBit Degradation Maximum (%)
T1 construct: expressed in transfected cells
Experimental: (§1) Procedure: A stable HeLa cell line expressing HiBiT-BRM was generated. On day 0, 5000 cells were seeded in 40 μL of media into each well of 384-well cell culture plates. […] Subsequently plates were incubated for 24 h in a standard tissue culture incubator and equilibrated at room temperature for 15 minutes. Nano-Glo HiBiT Lytic Detection System (Promega N3050) reagent was freshly prepared and 20 ul was added to each well. Upon addition of this LgBit-containing reagent, the HiBiT and LgBiT proteins associate to form the luminescent NanoBiT luciferase. The plates were shaken for 10 minutes at room temperature and the bioluminescence read using an EnVision plate reader (PerkinElmer).
For measurement of BRG1 degradation, a stable HeLa cell line expressing HiBit-BRG1 and LgBit was generated. The same protocol as above was then followed.
(§2) The degradation % was calculated using the following formula: % degradation=100%−100%×(LumSample−LumLC)/(LumHC−LumLC). DMSO treated cells are employed as High Control (HC) and 2 μM of a known BRM/BRG1 degrader standard treated cells are employed as Low Control (LC).

[2] = molecular target: T2, HiBiT-BRM (Homo sapiens, UniProt P51531); test: HiBiT-BRM cell-based degradation assay (Nano-Glo HiBiT Lytic Detection); conditions: HeLa cells expressing HiBiT-BRM, 24 h; for DC50: read-out: BRM HiBit Degradation IC50
T2 construct: expressed in transfected cells
T2 sequence (P51531 whole entry): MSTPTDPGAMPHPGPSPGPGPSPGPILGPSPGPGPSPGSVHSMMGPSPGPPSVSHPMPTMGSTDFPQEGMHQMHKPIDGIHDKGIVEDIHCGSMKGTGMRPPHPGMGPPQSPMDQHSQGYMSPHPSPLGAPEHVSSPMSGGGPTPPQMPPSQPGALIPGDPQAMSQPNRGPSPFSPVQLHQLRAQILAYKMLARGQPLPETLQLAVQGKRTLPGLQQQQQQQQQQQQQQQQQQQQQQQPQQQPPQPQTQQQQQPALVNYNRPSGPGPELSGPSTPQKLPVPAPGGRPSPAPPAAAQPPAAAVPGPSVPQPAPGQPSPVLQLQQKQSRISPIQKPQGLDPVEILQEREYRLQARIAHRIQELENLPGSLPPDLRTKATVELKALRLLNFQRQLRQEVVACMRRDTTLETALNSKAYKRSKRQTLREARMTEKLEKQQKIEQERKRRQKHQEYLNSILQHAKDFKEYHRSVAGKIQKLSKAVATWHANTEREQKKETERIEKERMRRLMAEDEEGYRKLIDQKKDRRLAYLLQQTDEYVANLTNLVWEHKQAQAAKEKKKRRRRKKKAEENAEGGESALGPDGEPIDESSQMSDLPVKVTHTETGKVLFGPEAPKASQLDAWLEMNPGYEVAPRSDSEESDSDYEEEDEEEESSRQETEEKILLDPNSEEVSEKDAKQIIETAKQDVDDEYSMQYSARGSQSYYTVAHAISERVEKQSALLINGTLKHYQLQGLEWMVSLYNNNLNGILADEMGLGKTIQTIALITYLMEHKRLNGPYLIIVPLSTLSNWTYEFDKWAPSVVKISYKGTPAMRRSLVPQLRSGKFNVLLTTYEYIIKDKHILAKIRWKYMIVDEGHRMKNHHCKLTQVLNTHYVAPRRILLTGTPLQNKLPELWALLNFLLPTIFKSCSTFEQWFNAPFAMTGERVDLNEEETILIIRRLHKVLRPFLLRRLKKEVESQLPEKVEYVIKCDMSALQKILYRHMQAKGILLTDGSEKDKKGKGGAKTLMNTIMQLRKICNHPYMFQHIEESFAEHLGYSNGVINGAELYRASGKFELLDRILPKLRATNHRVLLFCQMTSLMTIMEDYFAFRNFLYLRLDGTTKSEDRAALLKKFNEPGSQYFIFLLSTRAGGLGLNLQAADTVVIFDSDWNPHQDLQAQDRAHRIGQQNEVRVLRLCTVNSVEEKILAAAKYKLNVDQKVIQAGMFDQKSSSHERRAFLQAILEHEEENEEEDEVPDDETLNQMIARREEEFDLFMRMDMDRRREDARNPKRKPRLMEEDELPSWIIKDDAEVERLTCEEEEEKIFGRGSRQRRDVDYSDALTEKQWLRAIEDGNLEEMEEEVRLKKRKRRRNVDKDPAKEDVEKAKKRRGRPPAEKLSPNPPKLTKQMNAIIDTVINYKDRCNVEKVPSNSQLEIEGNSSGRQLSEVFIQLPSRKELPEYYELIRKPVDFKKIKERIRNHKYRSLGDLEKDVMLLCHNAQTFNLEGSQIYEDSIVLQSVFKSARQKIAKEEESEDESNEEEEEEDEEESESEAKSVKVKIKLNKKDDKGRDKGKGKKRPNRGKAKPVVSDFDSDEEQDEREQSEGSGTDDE
Experimental: as §1, §2

T1 sequence (P51532 whole entry): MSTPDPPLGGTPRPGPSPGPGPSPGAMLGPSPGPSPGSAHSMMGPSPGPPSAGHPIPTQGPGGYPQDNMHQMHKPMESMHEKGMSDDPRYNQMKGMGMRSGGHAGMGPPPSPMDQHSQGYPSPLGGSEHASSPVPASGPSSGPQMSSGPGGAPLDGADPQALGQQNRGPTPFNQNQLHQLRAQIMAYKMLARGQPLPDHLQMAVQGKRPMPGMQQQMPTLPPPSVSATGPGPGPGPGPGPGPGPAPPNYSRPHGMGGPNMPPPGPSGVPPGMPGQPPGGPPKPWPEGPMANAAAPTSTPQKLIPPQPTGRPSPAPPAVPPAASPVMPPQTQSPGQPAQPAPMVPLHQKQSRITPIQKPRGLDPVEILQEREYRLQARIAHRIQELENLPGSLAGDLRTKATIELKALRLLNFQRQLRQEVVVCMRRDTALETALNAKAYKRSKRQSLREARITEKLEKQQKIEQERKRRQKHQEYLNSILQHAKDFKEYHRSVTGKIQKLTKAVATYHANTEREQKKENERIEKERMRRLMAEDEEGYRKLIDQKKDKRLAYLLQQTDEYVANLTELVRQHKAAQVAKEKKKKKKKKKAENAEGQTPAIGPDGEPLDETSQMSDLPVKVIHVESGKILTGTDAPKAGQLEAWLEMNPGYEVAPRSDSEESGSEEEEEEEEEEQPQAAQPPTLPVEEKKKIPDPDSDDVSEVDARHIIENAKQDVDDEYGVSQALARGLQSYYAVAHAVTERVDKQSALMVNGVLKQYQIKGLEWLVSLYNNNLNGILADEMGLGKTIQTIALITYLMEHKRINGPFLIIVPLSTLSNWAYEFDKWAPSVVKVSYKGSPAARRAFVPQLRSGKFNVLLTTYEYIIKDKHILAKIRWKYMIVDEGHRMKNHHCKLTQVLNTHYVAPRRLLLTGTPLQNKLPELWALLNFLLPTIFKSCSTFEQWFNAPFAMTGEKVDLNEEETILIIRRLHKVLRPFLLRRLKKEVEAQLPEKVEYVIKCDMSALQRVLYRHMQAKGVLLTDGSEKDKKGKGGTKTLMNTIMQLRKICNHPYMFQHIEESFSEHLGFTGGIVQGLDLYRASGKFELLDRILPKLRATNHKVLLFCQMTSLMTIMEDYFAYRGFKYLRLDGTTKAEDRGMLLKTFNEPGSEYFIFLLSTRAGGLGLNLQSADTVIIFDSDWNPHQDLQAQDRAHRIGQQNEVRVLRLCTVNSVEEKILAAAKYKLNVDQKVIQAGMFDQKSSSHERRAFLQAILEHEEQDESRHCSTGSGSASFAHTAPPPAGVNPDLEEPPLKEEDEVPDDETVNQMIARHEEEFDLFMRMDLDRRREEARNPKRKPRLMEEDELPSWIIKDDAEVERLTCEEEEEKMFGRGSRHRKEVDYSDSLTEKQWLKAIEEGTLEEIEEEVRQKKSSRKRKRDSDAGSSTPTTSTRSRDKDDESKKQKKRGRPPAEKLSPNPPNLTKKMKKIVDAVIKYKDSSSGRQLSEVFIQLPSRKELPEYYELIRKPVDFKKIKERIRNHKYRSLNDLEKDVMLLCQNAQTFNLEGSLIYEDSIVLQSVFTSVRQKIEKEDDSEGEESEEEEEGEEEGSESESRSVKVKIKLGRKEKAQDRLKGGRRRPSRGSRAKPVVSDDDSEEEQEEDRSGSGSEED

DC50 [1]	Dmax [1]	DC50 [2]	SMILES	BRM HiBit Degradation Maximum (%) [2]
> 0.1 µM	> 75%	> 0.01 µM	Cc1ncsc1-c1ccc([C@H](C)NC(=O)[C@@H]2C[C@@H](O)CN2C(=O)[C@@H](NC(=O)CCCCCCCCCCCCCCCC(=O)N(C)Cc2ccc(CCOc3cc(-c4ccccc4O)nnc3N)cc2)C(C)(C)C)cc1 [Compound 227, N1-(4-(2-((3-amino-6-(2-hydroxyphenyl)pyridazin-4-yl)oxy)ethyl)benzyl)-N17-((S)-1-((2S,4R)-4-hydroxy-2-(((S)-1-(4-(4-methylthiazol-5-yl)phenyl)ethyl)carbamoyl)pyrrolidin-1-yl)-3,3-dimethyl-1-oxobutan-2-yl)-N1-methylheptadecanediamide]	A (“A” indicates maximum degradation ≥75%)
> 1 µM	< 50%	> 1 µM	Cc1ncsc1-c1ccc([C@H](C)NC(=O)[C@@H]2C[C@@H](O)CN2C(=O)[C@@H](NC(=O)CCCCN2CCN(CCC(=O)NCc3ccc(CCOc4cc(-c5ccccc5O)nnc4N)cc3)CC2)C(C)(C)C)cc1 [Compound 262, (2S,4R)-1-((S)-2-(5-(4-(3-((4-(2-((3-amino-6-(2-hydroxyphenyl)pyridazin-4-yl)oxy)ethyl)benzyl)amino)-3-oxopropyl)piperazin-1-yl)pentanamido)-3,3-dimethylbutanoyl)-4-hydroxy-N-((S)-1-(4-(4-methylthiazol-5-yl)phenyl)ethyl)pyrrolidine-2-carboxamide]	B (“B” indicates maximum degradation ≥50%)
> 1 µM	< 50%	> 1 µM	Cc1ncsc1-c1ccc([C@H](C)NC(=O)[C@@H]2C[C@@H](O)CN2C(=O)[C@@H](c2cc(OCCNCCCCCCC(=O)NCc3ccc(CCOc4cc(-c5ccccc5O)nnc4N)cc3)no2)C(C)C)cc1 [Compound 229, (2S,4R)-1-((R)-2-(3-(2-((7-((4-(2-((3-amino-6-(2-hydroxyphenyl)pyridazin-4-yl)oxy)ethyl)benzyl)amino)-7-oxoheptyl)amino)ethoxy)isoxazol-5-yl)-3-methylbutanoyl)-4-hydroxy-N-((S)-1-(4-(4-methylthiazol-5-yl)phenyl)ethyl)pyrrolidine-2-carboxamide]	B (“B” indicates maximum degradation ≥50%)
> 1 µM	< 50%	> 1 µM	Cc1ncsc1-c1ccc(CNC(=O)[C@@H]2C[C@@H](O)CN2C(=O)[C@@H](NC(=O)CCN2CC3=C(C2)CN(C(=O)c2ccc(CCOc4cc(-c5ccccc5O)nnc4N)cc2)C3)C(C)(C)C)cc1 [Compound 219, (2S,4R)-1-((S)-2-(3-(5-(4-(2-((3-amino-6-(2-hydroxyphenyl)pyridazin-4-yl)oxy)ethyl)benzoyl)-3,4,5,6-tetrahydropyrrolo[3,4-c]pyrrol-2(1H)-yl)propanamido)-3,3-dimethylbutanoyl)-4-hydroxy-N-(4-(4-methylthiazol-5-yl)benzyl)pyrrolidine-2-carboxamide]	B (“B” indicates maximum degradation ≥50%)
> 1 µM	< 50%	> 1 µM	Cc1ncsc1-c1ccc(CNC(=O)[C@@H]2C[C@@H](O)CN2C(=O)[C@@H](NC(=O)CCN2CCC(OC3CN(C(=O)c4ccc(CCOc5cc(-c6ccccc6O)nnc5N)cc4)C3)CC2)C(C)(C)C)cc1 [Compound 245, (2S,4R)-1-((S)-2-(3-(4-((1-(4-(2-((3-amino-6-(2-hydroxyphenyl)pyridazin-4-yl)oxy)ethyl)benzoyl)azetidin-3-yl)oxy)piperidin-1-yl)propanamido)-3,3-dimethylbutanoyl)-4-hydroxy-N-(4-(4-methylthiazol-5-yl)benzyl)pyrrolidine-2-carboxamide]	B (“B” indicates maximum degradation ≥50%)
> 0.1 µM	> 50%	> 0.01 µM	Cc1ncsc1-c1ccc([C@H](C)NC(=O)[C@@H]2C[C@@H](O)CN2C(=O)[C@@H](NC(=O)CCCCCCCCCCN2C[C@@H]3CN(Cc4ccc(CCOc5cc(-c6ccccc6O)nnc5N)cc4)C[C@@H]3C2)C(C)(C)C)cc1 [Compound 264, (2S,4R)-1-((2S)-2-(11-(5-(4-(2-((3-amino-6-(2-hydroxyphenyl)pyridazin-4-yl)oxy)ethyl)benzyl)hexahydropyrrolo[3,4-c]pyrrol-2(1H)-yl)undecanamido)-3,3-dimethylbutanoyl)-4-hydroxy-N-((S)-1-(4-(4-methylthiazol-5-yl)phenyl)ethyl)pyrrolidine-2-carboxamide]	A (“A” indicates maximum degradation ≥75%)

Continued, molecule first:

SMILES	DC50 [1]	Dmax [1]	DC50 [2]	BRM HiBit Degradation Maximum (%) [2]
Nc1nnc(-c2ccccc2O)cc1OCCc1ccc(C(=O)NCCCCC(=O)NCc2ccc(S(=O)(=O)Nc3cccc4c(Cl)c[nH]c34)cc2)cc1 [Compound 15, 4-(2-((3-amino-6-(2-hydroxyphenyl)pyridazin-4-yl)oxy)ethyl)-N-(5-((4-(N-(3-chloro-1H-indol-7-yl)sulfamoyl)benzyl)amino)-5-oxopentyl)benzamide]	> 1 µM	< 50%	> 1 µM	C (“C” indicates maximum degradation <50%)
Nc1nnc(-c2ccccc2O)cc1OCCc1ccc(CNC(=O)CCCNc2cccc3nnn(C4CCC(=O)NC4=O)c(=O)c23)cc1 (stereo not shown) [Compound 106, N-(4-(2-((3-amino-6-(2-hydroxyphenyl)pyridazin-4-yl)oxy)ethyl)benzyl)-4-((3-(2,6-dioxopiperidin-3-yl)-4-oxo-3,4-dihydrobenzo[d][1,2,3]triazin-5-yl)amino)butanamide]	> 1 µM	< 50%	> 1 µM	C (“C” indicates maximum degradation <50%)
Cc1ncsc1-c1ccc(CNC(=O)[C@@H]2C[C@@H](O)CN2C(=O)[C@@H](NC(=O)CCN2CC(C(=O)NCc3ccc(CCOc4cc(-c5ccccc5O)nnc4N)cc3)C2)C(C)(C)C)cc1 [Compound 182, (2S,4R)-1-[(2S)-2-[3-[3-([[4-(2-[[3-amino-6-(2-hydroxyphenyl)pyridazin-4-yl]oxy]ethyl)phenyl]methyl]carbamoyl)azetidin-1-yl]propanamido]-3,3-dimethylbutanoyl]-4-hydroxy-N-[[4-(4-methyl-1,3-thiazol-5-yl)phenyl]methyl]pyrrolidine-2-carboxamide]	> 1 µM	< 50%	> 1 µM	C (“C” indicates maximum degradation <50%)
Cc1ncsc1-c1ccc(CNC(=O)[C@@H]2C[C@@H](O)CN2C(=O)[C@@H](NC(=O)CCCCCCCCCNC(=O)c2ccc(CCNc3cc(-c4ccccc4O)nnc3N)cc2)C(C)(C)C)cc1 [Compound 134, (2S,4R)-1-[(2S)-2-(10-[[4-(2-[[3-amino-6-(2-hydroxyphenyl)pyridazin-4-yl]amino]ethyl)phenyl]formamido]decanamido)-3,3-dimethylbutanoyl]-4-hydroxy-N-[[4-(4-methyl-1,3-thiazol-5-yl)phenyl]methyl]pyrrolidine-2-carboxamide]	> 1 µM	< 50%	> 0.1 µM	B (“B” indicates maximum degradation ≥50%)
Nc1nnc(-c2ccccc2O)cc1N1CCN(C(=O)C2CC2CNC(=O)COc2ccc3c(c2)C(=O)N(C2CCC(=O)NC2=O)C3=O)CC1 (stereo not shown) [Compound 78, N-[(2-[4-[3-amino-6-(2-hydroxyphenyl)pyridazin-4-yl]piperazine-1-carbonyl]cyclopropyl)methyl]-2-[[2-(2,6-dioxopiperidin-3-yl)-1,3-dioxoisoindol-5-yl]oxy]acetamide]	> 1 µM	–	> 1 µM	C (“C” indicates maximum degradation <50%)
CN(CCCCCOc1cccc2c1C(=O)N(C1CCC(=O)NC1=O)C2=O)Cc1ccc(CCOc2cc(-c3ccccc3O)nnc2N)cc1 (stereo not shown) [Compound 113, 4-((5-((4-(2-((3-amino-6-(2-hydroxyphenyl)pyridazin-4-yl)oxy)ethyl)benzyl)(methyl)amino)pentyl)oxy)-2-(2,6-dioxopiperidin-3-yl)isoindoline-1,3-dione]	> 1 µM	< 50%	> 0.01 µM	A (“A” indicates maximum degradation ≥75%)
Cc1ncsc1-c1ccc(CNC(=O)[C@@H]2C[C@@H](O)CN2C(=O)[C@@H](NC(=O)CCN2CCN(CCC(=O)NCc3ccc(CCOc4cc(-c5ccccc5O)nnc4N)cc3)CC2)C(C)(C)C)cc1 [Compound 189, (2S,4R)-1-[(2S)-2-(3-[4-[2-([[4-(2-[[3-amino-6-(2-hydroxyphenyl)pyridazin-4-yl]oxy]ethyl)phenyl]methyl]carbamoyl)ethyl]piperazin-1-yl]propanamido)-3,3-dimethylbutanoyl]-4-hydroxy-N-[[4-(4-methyl-1,3-thiazol-5-yl)phenyl]methyl]pyrrolidine-2-carboxamide]	> 1 µM	< 50%	> 1 µM	C (“C” indicates maximum degradation <50%)
Cc1ncsc1-c1ccc(CNC(=O)[C@@H]2C[C@@H](O)CN2C(=O)[C@@H](NC(=O)CCCCCCCCCCC(=O)NCc2ccc(CCOc3cc(-c4ccccc4O)nnc3N)cc2)C(C)(C)C)cc1 [Compound 37]	> 1 µM	< 50%	> 0.1 µM	B (“B” indicates maximum degradation ≥50%)
